Measured values published in BindingDB's records for PubMed 20068177 (Wyeth Research).

Molecular target: Phosphatidylinositol 3-kinase regulatory subunit alpha/4,5-bisphosphate 3-kinase catalytic subunit alpha isoform (Homo sapiens, UniProt P27986+P42336)
Test: Inhibition of recombinant human full-length N-terminal His6-tagged p110alpha/full length untagged human p85alpha expressed in baculovirus infected Sf21 insect cells using PIP2 as substrate measured after 15 to 30 mins by fluorescence polarization assay

Chain of Phosphatidylinositol 3-kinase regulatory subunit alpha/4,5-bisphosphate 3-kinase catalytic subunit alpha isoform (P27986 whole entry, canonical isoform): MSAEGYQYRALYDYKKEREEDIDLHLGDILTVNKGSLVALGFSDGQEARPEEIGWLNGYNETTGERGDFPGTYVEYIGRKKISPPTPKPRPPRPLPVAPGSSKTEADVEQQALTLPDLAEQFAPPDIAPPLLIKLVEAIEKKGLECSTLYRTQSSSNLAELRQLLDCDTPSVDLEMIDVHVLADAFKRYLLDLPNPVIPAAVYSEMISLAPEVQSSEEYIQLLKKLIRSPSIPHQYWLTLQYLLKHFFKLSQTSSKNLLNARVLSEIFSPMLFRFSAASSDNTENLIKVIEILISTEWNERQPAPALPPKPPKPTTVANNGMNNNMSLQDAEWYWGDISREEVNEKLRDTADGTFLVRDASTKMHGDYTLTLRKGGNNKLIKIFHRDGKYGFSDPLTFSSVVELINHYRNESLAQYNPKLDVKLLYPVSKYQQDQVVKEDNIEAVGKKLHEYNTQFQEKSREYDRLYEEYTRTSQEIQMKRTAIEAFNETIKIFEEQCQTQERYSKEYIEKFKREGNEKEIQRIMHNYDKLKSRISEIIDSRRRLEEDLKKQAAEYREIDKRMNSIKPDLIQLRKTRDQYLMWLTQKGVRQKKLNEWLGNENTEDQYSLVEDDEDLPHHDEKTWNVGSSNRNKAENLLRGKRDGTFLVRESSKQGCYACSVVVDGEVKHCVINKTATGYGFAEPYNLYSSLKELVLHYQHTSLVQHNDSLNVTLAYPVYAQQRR
Chain of Phosphatidylinositol 3-kinase regulatory subunit alpha/4,5-bisphosphate 3-kinase catalytic subunit alpha isoform (P42336 whole entry, canonical isoform): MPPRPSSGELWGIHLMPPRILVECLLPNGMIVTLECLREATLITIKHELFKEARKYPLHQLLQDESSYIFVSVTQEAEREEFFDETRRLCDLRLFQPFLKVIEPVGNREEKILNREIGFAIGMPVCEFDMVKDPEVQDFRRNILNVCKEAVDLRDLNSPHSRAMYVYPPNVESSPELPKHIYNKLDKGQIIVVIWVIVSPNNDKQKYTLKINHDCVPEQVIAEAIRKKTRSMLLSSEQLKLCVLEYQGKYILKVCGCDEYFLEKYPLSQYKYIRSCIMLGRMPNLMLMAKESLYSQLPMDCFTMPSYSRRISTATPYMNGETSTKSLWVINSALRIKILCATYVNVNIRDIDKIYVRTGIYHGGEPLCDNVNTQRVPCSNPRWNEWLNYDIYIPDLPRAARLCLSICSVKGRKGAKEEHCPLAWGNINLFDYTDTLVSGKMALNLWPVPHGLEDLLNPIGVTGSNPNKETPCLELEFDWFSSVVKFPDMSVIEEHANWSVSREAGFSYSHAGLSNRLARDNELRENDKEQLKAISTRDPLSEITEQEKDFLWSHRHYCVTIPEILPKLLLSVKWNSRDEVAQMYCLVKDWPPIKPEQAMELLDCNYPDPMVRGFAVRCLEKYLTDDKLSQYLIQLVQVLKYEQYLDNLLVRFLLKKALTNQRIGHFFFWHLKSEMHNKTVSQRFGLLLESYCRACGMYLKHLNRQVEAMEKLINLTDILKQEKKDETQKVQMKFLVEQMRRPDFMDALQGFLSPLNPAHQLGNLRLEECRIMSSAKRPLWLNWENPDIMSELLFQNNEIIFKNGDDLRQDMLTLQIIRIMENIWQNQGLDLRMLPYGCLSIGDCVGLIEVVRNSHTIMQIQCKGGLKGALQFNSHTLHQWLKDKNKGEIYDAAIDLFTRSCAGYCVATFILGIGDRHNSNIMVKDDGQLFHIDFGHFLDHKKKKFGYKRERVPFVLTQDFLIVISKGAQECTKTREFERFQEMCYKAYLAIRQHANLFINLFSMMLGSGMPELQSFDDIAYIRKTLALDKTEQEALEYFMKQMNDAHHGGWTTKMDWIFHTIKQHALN

SMILES: CNC(=O)Nc1ccc(-c2nc(N3CC4CCC(C3)O4)c3cnn(C4CCC5(CC4)OCCO5)c3n2)cc1 [1-(4-(4-(8-oxa-3-azabicyclo[3.2.1]octan-3-yl)-1-(1,4-dioxaspiro[4.5]decan-8-yl)-1H-pyrazolo[3,4-d]pyrimidin-6-yl)phenyl)-3-methylurea]
- IC50: 1180 nM
